Assays:
[1] = tested on: Aeromonas hydrophila subsp. hydrophila ATCC 7966; experiment: Inhibition of Aeromonas hydrophila ATCC 7966 CphA expressed in Escherichia coli LMG194 at 50 uM using CPC-1 as substrate preincubated for 10 mins followed by substrate addition by fluorescence assay relative to control
[2] = Inhibition of Aeromonas hydrophila ATCC 7966 NDM1 expressed in Escherichia coli LMG194 using CPC-1 as substrate preincubated for 10 mins followed by substrate addition by fluorescence assay; set-up: species or system Aeromonas hydrophila subsp. hydrophila ATCC 7966
[3] = Inhibition of Aeromonas hydrophila ATCC 7966 IMP1 expressed in Escherichia coli LMG194 using CPC-1 as substrate preincubated for 10 mins followed by substrate addition by fluorescence assay; set-up: species or system Aeromonas hydrophila subsp. hydrophila ATCC 7966
[4] = Inhibition of Aeromonas hydrophila ATCC 7966 beta-lactamase L1 expressed in Escherichia coli LMG194 using CPC-1 as substrate preincubated for 10 mins followed by substrate addition by fluorescence assay; set-up: species or system Aeromonas hydrophila subsp. hydrophila ATCC 7966
[5] = Inhibition of Aeromonas hydrophila ATCC 7966 beta-lactamase L1 expressed in Escherichia coli LMG194 using FC3 as substrate preincubated for 10 mins followed by substrate addition by fluorescence assay; set-up: species or system Aeromonas hydrophila subsp. hydrophila ATCC 7966
[6] = Inhibition of Aeromonas hydrophila ATCC 7966 NDM1 expressed in Escherichia coli LMG194 using FC3 as substrate preincubated for 10 mins followed by substrate addition by fluorescence assay; set-up: species or system Aeromonas hydrophila subsp. hydrophila ATCC 7966
[7] = Inhibition of Aeromonas hydrophila ATCC 7966 IMP1 expressed in Escherichia coli LMG194 using FC3 as substrate preincubated for 10 mins followed by substrate addition by fluorescence assay; set-up: species or system Aeromonas hydrophila subsp. hydrophila ATCC 7966
[8] = Inhibition of Aeromonas hydrophila ATCC 7966 CphA expressed in Escherichia coli LMG194 using CPC-1 as substrate preincubated for 10 mins followed by substrate addition by fluorescence assay; set-up: species or system Aeromonas hydrophila subsp. hydrophila ATCC 7966
[9] = Inhibition of Aeromonas hydrophila ATCC 7966 CphA expressed in Escherichia coli LMG194 using imipenem as substrate; set-up: species or system Aeromonas hydrophila subsp. hydrophila ATCC 7966

| SMILES | inhibition [1] [%] | IC50 [2] [µM] | IC50 [3] [µM] | IC50 [4] [µM] | IC50 [5] [µM] | IC50 [6] [µM] | IC50 [7] [µM] | IC50 [8] [µM] | IC50 [9] [µM] |
| --- | --- | --- | --- | --- | --- | --- | --- | --- | --- |
| O=c1c2ccccc2[se]n1-c1ccccc1 | < 50 |  |  |  |  |  |  |  |  |
| OCC(S)CS (stereo not given) [DIMERCAPROL] | > 80 | 1.5 | 7.1 | 5 | 2.6 | 1 | 6.2 | 7.8 |  |
| O=C(O)c1cccc(C(=O)O)n1 [DIPICOLINIC ACID] |  | 8.8 | 23.6 |  |  | 6.2 | 29.4 | 61.5 | 88.4 |

— ChEMBL document CHEMBL4308890, “A carbapenem-based fluorescence assay for the screening of metallo-β-lactamase inhibitors” (Bioorg Med Chem Lett, 2019)
